Like-named read-outs stand apart in the source and are kept apart here.
Experiments:
Experiment in all cases: DiscoverX KINOMEscan kinase profiling (468 assays)
Format in all cases: binding
human kinome [1] = target: human kinome (Homo sapiens, UniProt O15264); settings: read-out: Percent Control
In short: (§1)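 DNA-tagged kinases competed for immobilized biotinylated ligands on streptavidin magnetic beads, with bound kinase quantified by qPCR. VIP152 in DMSO was tested against a DMSO control.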

human kinome [2] = target: human kinome (Homo sapiens, UniProt O43683); settings: BUB1; 100 nM; read-out: Percent Control
In short: as §1

human kinome [3] = target: human kinome (Homo sapiens, UniProt P07949, V804L); settings: kinase RET(V804L) (Entrez RET); compound concentration 1000 nM; read-out: Percent Control
In short: as §1

human kinome [4] = target: human kinome (Homo sapiens, UniProt P10721); settings: 100 nM, read-out: Percent Control
Sequence of human kinome (Homo sapiens, UniProt P10721) (P10721 26-976): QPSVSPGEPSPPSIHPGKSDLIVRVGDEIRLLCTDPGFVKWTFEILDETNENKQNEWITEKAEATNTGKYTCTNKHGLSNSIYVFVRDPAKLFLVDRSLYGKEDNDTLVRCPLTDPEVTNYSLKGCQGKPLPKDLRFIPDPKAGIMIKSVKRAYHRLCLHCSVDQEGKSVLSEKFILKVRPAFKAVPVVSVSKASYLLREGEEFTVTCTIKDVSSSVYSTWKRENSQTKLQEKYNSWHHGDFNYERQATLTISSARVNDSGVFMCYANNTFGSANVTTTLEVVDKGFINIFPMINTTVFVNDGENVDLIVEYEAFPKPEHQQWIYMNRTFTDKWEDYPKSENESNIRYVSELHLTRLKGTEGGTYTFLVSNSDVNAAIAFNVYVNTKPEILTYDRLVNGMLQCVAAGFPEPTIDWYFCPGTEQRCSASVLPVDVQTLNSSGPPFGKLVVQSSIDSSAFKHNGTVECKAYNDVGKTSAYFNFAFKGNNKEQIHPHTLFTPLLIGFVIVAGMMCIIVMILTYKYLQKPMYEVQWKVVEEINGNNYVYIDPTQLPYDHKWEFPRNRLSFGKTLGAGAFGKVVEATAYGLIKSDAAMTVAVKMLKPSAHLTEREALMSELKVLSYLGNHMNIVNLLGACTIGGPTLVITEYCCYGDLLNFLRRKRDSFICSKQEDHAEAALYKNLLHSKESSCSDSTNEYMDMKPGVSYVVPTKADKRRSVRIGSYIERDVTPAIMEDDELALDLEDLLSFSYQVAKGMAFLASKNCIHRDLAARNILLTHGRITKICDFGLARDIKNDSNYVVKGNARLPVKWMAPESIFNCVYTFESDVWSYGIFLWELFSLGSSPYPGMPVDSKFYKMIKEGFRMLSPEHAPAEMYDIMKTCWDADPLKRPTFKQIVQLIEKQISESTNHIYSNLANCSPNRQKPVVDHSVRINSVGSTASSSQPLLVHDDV
In short: as §1

human kinome [5] = target: human kinome (Homo sapiens, UniProt P10721, L576P); settings: KIT(L576P); 100 nM; read-out: Percent Control
Sequence of human kinome (Homo sapiens, UniProt P10721, L576P) (P10721 26-976 L576P): as the sequence (P10721 26-976) above, with L551P counted along it
In short: as §1

human kinome [6] = target: human kinome (Homo sapiens, UniProt P21127); settings: CDC2L1 (Entrez CDK11B); 100 nM; read-out: Percent Control
In short: as §1

human kinome [7] = target: human kinome (Homo sapiens, UniProt P21860); settings: ERBB3; 100 nM; read-out: Percent Control
In short: as §1

human kinome [8] = target: human kinome (Homo sapiens, UniProt P24941); settings: CDK2; 100 nM; read-out: Percent Control
In short: as §1

human kinome [9] = target: human kinome (Homo sapiens, UniProt P28482); settings: ERK2 (Entrez MAPK1); 100 nM; read-out: Percent Control
In short: as §1

human kinome [10] = target: human kinome (Homo sapiens, UniProt P29322); settings: EPHA8; 100 nM; read-out: Percent Control
In short: as §1

human kinome [11] = target: human kinome (Homo sapiens, UniProt P42336, M1043I); settings: read-out: Percent Control
Sequence of human kinome (Homo sapiens, UniProt P42336, M1043I) (P42336 whole entry M1043I): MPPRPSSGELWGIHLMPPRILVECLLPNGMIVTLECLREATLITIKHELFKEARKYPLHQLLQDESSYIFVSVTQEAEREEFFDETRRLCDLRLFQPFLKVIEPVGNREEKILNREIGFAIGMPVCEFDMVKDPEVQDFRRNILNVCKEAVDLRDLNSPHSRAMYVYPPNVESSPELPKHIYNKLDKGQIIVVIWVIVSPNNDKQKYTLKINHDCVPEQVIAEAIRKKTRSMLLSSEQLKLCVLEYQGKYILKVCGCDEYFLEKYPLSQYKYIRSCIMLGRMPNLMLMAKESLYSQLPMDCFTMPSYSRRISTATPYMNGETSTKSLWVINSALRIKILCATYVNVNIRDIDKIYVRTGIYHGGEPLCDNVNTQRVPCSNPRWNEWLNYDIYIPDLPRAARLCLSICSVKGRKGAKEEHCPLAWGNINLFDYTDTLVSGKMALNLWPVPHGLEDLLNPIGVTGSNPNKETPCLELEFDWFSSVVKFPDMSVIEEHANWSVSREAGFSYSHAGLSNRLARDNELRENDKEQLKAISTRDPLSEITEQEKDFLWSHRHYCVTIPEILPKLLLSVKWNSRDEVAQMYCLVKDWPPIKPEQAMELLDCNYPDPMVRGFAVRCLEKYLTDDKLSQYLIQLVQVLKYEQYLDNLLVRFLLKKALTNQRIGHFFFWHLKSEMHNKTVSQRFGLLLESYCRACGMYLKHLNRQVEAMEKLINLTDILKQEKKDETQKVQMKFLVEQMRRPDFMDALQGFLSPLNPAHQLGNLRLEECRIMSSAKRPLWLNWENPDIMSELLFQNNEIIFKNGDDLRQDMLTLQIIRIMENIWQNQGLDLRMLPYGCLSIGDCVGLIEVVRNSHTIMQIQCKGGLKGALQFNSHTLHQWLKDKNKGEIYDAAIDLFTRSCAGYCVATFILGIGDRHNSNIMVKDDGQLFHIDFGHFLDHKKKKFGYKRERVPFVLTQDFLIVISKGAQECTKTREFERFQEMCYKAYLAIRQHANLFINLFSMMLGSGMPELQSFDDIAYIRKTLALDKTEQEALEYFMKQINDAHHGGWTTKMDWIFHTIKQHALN
In short: as §1

human kinome [12] = target: human kinome (Homo sapiens, UniProt P49674); settings: CSNK1E; 100 nM; read-out: Percent Control
In short: as §1

human kinome [13] = target: human kinome (Homo sapiens, UniProt P51812); settings: compound concentration 1000 nM, read-out: Percent Control
Sequence of human kinome (Homo sapiens, UniProt P51812) (P51812 whole entry): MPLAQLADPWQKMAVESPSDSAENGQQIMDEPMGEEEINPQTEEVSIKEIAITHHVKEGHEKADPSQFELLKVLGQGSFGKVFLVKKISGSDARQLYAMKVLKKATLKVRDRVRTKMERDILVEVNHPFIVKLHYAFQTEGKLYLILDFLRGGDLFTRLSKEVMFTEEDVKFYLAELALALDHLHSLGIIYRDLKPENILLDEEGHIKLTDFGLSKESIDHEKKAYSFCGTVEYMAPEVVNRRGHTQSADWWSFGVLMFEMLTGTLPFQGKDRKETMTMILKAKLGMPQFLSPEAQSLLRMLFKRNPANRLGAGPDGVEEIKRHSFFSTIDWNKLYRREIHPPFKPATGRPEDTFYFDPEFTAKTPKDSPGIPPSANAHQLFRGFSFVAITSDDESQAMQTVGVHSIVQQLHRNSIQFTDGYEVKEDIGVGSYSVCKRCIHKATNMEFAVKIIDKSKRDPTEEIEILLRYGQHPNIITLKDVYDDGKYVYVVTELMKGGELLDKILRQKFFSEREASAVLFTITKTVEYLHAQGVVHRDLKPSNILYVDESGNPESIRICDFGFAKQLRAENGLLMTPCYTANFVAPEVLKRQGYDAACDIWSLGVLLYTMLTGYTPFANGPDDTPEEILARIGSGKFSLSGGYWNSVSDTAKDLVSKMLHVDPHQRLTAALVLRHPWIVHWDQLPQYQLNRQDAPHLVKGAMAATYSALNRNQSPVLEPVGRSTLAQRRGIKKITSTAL
In short: as §1

human kinome [14] = target: human kinome (Homo sapiens, UniProt P52564); settings: MEK6 (Entrez MAP2K6); 100 nM; read-out: Percent Control
Sequence of human kinome (Homo sapiens, UniProt P52564) (P52564 whole entry): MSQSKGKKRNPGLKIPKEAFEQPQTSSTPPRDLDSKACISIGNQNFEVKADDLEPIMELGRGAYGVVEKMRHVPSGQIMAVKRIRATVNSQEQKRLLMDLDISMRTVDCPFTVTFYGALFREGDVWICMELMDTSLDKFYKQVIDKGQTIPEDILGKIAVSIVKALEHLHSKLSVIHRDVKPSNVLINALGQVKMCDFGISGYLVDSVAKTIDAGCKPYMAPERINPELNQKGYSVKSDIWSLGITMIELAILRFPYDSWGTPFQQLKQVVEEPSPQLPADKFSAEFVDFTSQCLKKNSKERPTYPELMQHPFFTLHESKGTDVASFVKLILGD
In short: as §1

human kinome [15] = target: human kinome (Homo sapiens, UniProt P54753); settings: EPHB3; 100 nM; read-out: Percent Control
In short: as §1

human kinome [16] = target: human kinome (Homo sapiens, UniProt P54762); settings: EPHB1; 100 nM; read-out: Percent Control
In short: as §1

human kinome [17] = target: human kinome (Homo sapiens, UniProt Q06187); settings: BTK; 100 nM; read-out: Percent Control
In short: as §1

human kinome [18] = target: human kinome (Homo sapiens, UniProt Q13464); settings: kinase ROCK1 (Entrez ROCK1); compound concentration 1000 nM; read-out: Percent Control
In short: as §1

human kinome [19] = target: human kinome (Homo sapiens, UniProt Q13976); settings: read-out: Percent Control
Sequence of human kinome (Homo sapiens, UniProt Q13976) (Q13976 whole entry): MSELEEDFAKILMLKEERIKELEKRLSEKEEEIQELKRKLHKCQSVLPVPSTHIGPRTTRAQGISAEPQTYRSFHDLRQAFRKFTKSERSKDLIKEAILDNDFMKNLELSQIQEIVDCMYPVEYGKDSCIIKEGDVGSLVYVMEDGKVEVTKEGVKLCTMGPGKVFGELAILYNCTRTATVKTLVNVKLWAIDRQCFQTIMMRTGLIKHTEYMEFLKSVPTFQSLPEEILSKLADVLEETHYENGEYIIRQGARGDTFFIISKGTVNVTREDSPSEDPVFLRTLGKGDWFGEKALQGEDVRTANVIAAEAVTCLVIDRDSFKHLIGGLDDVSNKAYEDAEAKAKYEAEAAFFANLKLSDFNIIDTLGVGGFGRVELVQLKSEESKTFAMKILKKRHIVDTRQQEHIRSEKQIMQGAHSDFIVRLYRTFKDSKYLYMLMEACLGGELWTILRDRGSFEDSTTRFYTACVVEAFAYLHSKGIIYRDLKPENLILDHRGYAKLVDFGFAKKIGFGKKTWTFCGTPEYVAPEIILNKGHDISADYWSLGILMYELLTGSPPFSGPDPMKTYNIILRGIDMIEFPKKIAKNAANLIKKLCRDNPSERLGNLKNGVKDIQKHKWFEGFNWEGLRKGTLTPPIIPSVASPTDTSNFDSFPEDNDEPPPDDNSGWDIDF
In short: as §1

human kinome [20] = target: human kinome (Homo sapiens, UniProt Q15569); settings: kinase TESK1 (Entrez TESK1); compound concentration 1000 nM; read-out: Percent Control
In short: as §1

human kinome [21] = target: human kinome (Homo sapiens, UniProt Q8NEB9); settings: kinase VPS34 (Entrez PIK3C3); compound concentration 1000 nM; read-out: Percent Control
In short: as §1

human kinome [22] = target: human kinome (Homo sapiens, UniProt Q8TDX7); settings: read-out: Percent Control
Sequence of human kinome (Homo sapiens, UniProt Q8TDX7) (Q8TDX7 whole entry): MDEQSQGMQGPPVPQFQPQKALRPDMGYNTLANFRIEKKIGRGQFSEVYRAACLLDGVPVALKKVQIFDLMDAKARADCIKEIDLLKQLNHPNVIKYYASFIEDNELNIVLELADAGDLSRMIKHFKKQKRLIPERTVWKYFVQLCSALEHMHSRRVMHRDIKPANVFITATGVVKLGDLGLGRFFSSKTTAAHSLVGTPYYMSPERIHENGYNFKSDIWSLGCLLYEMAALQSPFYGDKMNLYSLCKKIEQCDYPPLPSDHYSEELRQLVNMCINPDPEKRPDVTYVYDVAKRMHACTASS
In short: as §1

human kinome [23] = target: human kinome (Homo sapiens, UniProt Q96GD4); settings: AURKB; 100 nM; read-out: Percent Control
In short: as §1

human kinome [24] = target: human kinome (Homo sapiens, UniProt Q96NX5); settings: CAMK1G; 100 nM; read-out: Percent Control
In short: as §1

human kinome [25] = target: human kinome (Homo sapiens, UniProt Q9BYP7); settings: kinase WNK3 (Entrez WNK3); compound concentration 1000 nM; read-out: Percent Control
In short: as §1

human kinome [26] = target: human kinome (Homo sapiens, UniProt Q9C098); settings: DCAMKL3 (Entrez DCLK3); 100 nM; read-out: Percent Control
In short: as §1

human kinome [27] = target: human kinome (Homo sapiens, UniProt Q9HBY8); settings: kinase SGK2 (Entrez SGK2); compound concentration 1000 nM; read-out: Percent Control
Sequence of human kinome (Homo sapiens, UniProt Q9HBY8) (Q9HBY8 whole entry): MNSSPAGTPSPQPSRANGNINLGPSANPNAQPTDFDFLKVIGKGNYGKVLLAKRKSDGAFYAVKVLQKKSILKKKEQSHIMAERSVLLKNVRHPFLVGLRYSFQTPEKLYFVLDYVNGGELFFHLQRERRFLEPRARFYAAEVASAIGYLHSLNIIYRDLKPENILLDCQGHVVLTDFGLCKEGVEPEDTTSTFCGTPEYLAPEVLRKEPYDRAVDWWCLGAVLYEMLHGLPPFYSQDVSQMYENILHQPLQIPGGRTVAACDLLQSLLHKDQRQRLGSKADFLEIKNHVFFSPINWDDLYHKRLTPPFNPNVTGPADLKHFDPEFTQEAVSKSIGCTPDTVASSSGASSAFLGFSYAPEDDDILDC
In short: as §1

human kinome [28] = target: human kinome (Homo sapiens, UniProt Q9NRM7); settings: LATS2; 100 nM; read-out: Percent Control
In short: as §1

human kinome [29] = target: human kinome (Homo sapiens, UniProt Q9Y6R4); settings: MAP3K4; 100 nM; read-out: Percent Control
In short: as §1

Sequence of human kinome (Homo sapiens, UniProt O15264) (O15264 whole entry): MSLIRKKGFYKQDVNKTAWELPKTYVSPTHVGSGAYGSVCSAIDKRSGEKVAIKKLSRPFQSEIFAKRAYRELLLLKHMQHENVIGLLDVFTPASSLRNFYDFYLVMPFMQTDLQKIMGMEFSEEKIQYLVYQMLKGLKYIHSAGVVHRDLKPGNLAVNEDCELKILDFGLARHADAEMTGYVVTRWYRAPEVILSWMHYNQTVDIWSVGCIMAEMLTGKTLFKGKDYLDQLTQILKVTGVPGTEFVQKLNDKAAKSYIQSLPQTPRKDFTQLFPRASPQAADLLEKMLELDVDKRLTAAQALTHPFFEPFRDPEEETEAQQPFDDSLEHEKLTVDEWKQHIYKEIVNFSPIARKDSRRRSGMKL

## COc1cc(F)ccc1-c1cc(Nc2cc(CS(C)(=N)=O)ccn2)ncc1F (centres unmarked) [VIP152]
Human kinome [1]; kinase p38-delta (Entrez MAPK13), compound concentration 1000 nM
  remaining binding at 1 µM: 98%
Human kinome [1]; p38-delta (Entrez MAPK13), 100 nM
  remaining binding at 0.1 µM: 100%
Human kinome [2]
  remaining binding at 0.1 µM: 100%
Human kinome [3]
  remaining binding at 1 µM: 86%
Human kinome [4]; KIT-autoinhibited
  remaining binding at 0.1 µM: 98%
Human kinome [4]; KIT
  remaining binding at 0.1 µM: 100%
Human kinome [5]
  remaining binding at 0.1 µM: 100%
Human kinome [6]
  remaining binding at 0.1 µM: 100%
Human kinome [7]
  remaining binding at 0.1 µM: 100%
Human kinome [8]
  remaining binding at 0.1 µM: 100%
Human kinome [9]
  remaining binding at 0.1 µM: 100%
Human kinome [10]
  remaining binding at 0.1 µM: 100%
Human kinome [11]; PIK3CA(M1043I), 100 nM
  remaining binding at 0.1 µM: 100%
Human kinome [11]; kinase PIK3CA(M1043I) (Entrez PIK3CA), compound concentration 1000 nM
  remaining binding at 1 µM: 84%
Human kinome [12]
  remaining binding at 0.1 µM: 95%
Human kinome [13]; kinase RSK2(Kin.Dom.1-N-terminal) (Entrez RPS6KA3)
  remaining binding at 1 µM: 60%
Human kinome [13]; kinase RSK2(Kin.Dom.2-C-terminal) (Entrez RPS6KA3)
  remaining binding at 1 µM: 80%
Human kinome [14]
  remaining binding at 0.1 µM: 100%
Human kinome [15]
  remaining binding at 0.1 µM: 100%
Human kinome [16]
  remaining binding at 0.1 µM: 100%
Human kinome [17]
  remaining binding at 0.1 µM: 100%
Human kinome [18]
  remaining binding at 1 µM: 57%
Human kinome [19]; PRKG1, 100 nM
  remaining binding at 0.1 µM: 100%
Human kinome [19]; kinase PRKG1 (Entrez PRKG1), compound concentration 1000 nM
  remaining binding at 1 µM: 91%
Human kinome [20]
  remaining binding at 1 µM: 92%
Human kinome [21]
  remaining binding at 1 µM: 100%
Human kinome [22]; NEK7, 100 nM
  remaining binding at 0.1 µM: 100%
Human kinome [22]; kinase NEK7 (Entrez NEK7), compound concentration 1000 nM
  remaining binding at 1 µM: 94%
Human kinome [23]
  remaining binding at 0.1 µM: 99%
Human kinome [24]
  remaining binding at 0.1 µM: 100%
Human kinome [25]
  remaining binding at 1 µM: 92%
Human kinome [26]
  remaining binding at 0.1 µM: 100%
Human kinome [27]
  remaining binding at 1 µM: 73%
Human kinome [28]
  remaining binding at 0.1 µM: 99%
Human kinome [29]
  remaining binding at 0.1 µM: 100%

— PMC9898036, “VIP152 is a selective CDK9 inhibitor with pre-clinical in vitro and in vivo efficacy in chronic lymphocytic leukemia” (Leukemia, 2022)
